What all share (format): binding
The target in one assay is T1, Q8NEG5 (Homo sapiens, UniProt Q8NEG5).
T1 construct: endogenous in cells; whole-cell lysate
T1 sequence (Q8NEG5 1-633): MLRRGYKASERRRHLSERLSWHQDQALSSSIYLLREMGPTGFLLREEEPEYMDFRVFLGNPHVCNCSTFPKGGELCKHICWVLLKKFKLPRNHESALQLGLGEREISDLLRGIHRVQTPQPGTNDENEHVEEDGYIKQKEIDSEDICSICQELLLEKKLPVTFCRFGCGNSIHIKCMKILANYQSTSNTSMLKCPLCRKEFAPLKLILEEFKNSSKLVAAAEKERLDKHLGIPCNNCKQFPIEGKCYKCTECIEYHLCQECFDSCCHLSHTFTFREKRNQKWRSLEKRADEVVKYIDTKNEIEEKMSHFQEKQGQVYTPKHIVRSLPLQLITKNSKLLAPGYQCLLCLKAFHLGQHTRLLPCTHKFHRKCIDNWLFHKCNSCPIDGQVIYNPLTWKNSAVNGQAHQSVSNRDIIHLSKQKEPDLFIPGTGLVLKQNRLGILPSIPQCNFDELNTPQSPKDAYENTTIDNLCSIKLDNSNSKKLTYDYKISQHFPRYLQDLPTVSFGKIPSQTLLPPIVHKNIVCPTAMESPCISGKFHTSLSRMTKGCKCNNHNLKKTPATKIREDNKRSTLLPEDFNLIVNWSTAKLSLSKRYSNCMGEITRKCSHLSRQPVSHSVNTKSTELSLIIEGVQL
Kind of assay: Cysteine liganding, probe competition (Table 2B). The text has this:
(§1) The following 96-well sample prep protocol was used for sample preparation.

For another assay, the target named is T2, Q8WXK3 (Homo sapiens, UniProt Q8WXK3).
T2 construct: 200 μL of lysate containing 5 mg/ml proteome was treated with 2 μL of 100× compound stock; endogenous in cells
As to the kind of experiment: Competitive cysteine profiling, probe competition (Table 2B).
Excerpt: as §1

The target in a further assay is T3, Q9H0C5 (Homo sapiens, UniProt Q9H0C5).
T3 construct: 200 μL of lysate containing 5 mg/ml proteome was treated with 2 μL of 100× compound stock; endogenous in cells
T3 sequence (Q9H0C5 1-482): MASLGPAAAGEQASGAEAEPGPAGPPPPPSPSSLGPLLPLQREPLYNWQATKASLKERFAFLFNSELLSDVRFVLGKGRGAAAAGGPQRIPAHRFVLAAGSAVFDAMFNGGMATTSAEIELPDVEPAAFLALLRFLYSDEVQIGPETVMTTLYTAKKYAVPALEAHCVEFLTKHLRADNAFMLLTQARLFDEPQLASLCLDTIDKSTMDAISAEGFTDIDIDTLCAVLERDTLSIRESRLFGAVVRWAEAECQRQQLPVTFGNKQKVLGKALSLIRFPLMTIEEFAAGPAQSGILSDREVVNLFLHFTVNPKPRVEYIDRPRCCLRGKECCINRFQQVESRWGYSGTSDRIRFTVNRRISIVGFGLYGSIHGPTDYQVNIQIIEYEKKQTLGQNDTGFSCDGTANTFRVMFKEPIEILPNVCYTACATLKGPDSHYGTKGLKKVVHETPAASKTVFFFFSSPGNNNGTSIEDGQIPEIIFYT
Described as above.
Excerpt: as §1

In another assay the target is T4, Q7Z569 (Homo sapiens, UniProt Q7Z569).
T4 construct: 200 μL of lysate containing 5 mg/ml proteome was treated with 2 μL of 100× compound stock; endogenous in cells
The assay is described as above.
Excerpt: as §1

The target in a further assay is T5, Q9BSF8 (Homo sapiens, UniProt Q9BSF8).
T5 construct: 200 μL of lysate containing 5 mg/ml proteome was treated with 2 μL of 100× compound stock; endogenous in cells
Described as above.
Excerpt: as §1

Another assay addresses T6, Q9P2G1 (Homo sapiens, UniProt Q9P2G1).
T6 construct: Cells were resuspended in cold PBS on ice and sonicated with a probe sonicator to achieve lysis; endogenous in cells
T6 sequence (Q9P2G1 1-1089): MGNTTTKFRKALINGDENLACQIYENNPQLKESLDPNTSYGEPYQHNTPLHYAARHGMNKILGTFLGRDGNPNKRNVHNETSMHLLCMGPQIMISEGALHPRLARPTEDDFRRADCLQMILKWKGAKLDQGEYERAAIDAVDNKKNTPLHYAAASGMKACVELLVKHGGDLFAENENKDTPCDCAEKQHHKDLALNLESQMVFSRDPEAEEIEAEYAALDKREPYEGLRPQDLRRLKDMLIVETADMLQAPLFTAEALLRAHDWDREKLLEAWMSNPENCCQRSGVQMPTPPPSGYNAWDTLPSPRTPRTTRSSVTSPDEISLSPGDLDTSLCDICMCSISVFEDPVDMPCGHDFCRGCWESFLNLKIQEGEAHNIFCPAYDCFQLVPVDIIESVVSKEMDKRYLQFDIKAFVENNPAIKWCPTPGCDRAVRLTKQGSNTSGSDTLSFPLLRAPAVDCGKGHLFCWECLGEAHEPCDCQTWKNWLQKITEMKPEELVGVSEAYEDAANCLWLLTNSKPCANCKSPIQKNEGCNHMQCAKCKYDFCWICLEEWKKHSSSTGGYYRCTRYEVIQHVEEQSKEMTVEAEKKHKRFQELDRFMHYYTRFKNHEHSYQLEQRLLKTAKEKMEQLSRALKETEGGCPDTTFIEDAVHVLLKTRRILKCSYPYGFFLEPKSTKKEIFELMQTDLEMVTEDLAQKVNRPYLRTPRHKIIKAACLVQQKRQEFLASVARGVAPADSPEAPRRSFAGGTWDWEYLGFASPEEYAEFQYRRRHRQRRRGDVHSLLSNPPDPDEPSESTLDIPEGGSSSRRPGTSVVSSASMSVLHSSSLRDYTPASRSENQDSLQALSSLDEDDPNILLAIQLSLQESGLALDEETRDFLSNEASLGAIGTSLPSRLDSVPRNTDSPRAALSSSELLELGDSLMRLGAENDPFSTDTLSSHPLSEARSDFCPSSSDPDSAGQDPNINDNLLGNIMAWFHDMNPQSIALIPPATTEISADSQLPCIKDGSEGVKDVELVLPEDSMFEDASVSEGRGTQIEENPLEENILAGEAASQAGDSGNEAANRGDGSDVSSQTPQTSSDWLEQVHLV
The assay is described as above.
Excerpt: as §1

Another assay concerns the target T7, Q9Y297 (Homo sapiens, UniProt Q9Y297).
T7 construct: 200 μL of lysate containing 5 mg/ml proteome was treated with 2 μL of 100× compound stock; endogenous in cells
The assay is described as above.
Excerpt: as §1

Setting [1] is: read-out: KB05_100 uM_percent_inhibition.
The mark [2] stands for this setting: 500 uM, read-out: KB05_500 uM_percent_inhibition.

The text below walks through data of patent US20200239530A1, “COMPOUNDS AND METHODS OF MODULATING PROTEIN DEGRADATION” (Vividion Therapeutics, Inc., priority 2017, published 2020).

SMILES strings stand for the structures. Like-named read-outs stand apart in the source and are kept apart here.

T5 sequence (Q9BSF8 whole entry): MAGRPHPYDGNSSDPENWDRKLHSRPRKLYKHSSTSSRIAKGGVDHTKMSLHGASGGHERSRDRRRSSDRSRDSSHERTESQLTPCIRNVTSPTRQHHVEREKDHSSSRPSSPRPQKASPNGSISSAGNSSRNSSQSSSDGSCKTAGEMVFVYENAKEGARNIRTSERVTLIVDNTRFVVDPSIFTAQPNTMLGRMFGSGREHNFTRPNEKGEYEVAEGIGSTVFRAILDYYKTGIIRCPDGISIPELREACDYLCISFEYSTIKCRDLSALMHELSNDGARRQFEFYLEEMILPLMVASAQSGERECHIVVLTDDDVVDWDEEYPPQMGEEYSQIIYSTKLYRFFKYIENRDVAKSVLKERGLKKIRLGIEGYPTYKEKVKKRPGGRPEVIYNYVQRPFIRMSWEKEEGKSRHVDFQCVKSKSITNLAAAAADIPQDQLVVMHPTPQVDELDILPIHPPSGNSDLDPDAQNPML
T2 sequence (Q8WXK3 whole entry): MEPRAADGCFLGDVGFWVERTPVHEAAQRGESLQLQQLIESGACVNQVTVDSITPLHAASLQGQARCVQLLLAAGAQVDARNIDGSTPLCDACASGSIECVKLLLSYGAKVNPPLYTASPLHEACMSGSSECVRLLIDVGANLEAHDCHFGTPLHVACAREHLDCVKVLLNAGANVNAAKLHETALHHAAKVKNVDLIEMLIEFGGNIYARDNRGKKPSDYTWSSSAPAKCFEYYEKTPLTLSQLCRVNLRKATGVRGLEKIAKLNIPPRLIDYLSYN
T4 sequence (Q7Z569 whole entry): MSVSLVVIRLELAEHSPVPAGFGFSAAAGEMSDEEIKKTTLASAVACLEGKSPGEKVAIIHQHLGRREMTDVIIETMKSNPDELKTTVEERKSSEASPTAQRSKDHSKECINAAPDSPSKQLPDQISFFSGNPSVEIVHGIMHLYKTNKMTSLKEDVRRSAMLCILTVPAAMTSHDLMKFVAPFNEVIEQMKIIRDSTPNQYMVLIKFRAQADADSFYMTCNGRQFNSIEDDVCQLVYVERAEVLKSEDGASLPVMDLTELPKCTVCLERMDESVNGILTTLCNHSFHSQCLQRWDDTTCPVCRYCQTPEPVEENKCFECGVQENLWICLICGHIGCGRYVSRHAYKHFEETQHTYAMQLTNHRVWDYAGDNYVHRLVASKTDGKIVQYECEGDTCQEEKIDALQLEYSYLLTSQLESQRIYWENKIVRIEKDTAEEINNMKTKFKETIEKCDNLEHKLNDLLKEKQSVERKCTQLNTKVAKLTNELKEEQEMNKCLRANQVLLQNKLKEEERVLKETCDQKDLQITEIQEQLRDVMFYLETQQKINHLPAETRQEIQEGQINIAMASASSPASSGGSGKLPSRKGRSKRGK
T7 sequence (Q9Y297 whole entry): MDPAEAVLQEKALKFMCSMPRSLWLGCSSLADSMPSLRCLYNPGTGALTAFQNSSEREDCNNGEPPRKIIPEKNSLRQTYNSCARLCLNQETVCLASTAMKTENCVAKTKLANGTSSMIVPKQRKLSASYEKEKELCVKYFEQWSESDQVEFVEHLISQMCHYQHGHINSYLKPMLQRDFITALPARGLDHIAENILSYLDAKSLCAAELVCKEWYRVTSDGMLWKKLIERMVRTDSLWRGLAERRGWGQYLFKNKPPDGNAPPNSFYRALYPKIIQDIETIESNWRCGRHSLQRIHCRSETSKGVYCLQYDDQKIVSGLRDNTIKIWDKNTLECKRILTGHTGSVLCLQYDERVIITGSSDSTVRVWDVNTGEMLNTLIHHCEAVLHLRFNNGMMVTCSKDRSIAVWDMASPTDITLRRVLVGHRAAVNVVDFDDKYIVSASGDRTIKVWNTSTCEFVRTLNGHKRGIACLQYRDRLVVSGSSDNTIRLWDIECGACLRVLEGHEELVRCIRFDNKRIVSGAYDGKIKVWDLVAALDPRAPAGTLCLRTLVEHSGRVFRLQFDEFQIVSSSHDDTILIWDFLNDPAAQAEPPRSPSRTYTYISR

Turning to `COc1ccc2c(c1)CCCN2C(=O)CCl` [KB02], the inhibition at 500 µM on Q8NEG5 (read-out: KB02_500 uM_percent_inhibition) came to 35%; at Q8WXK3 (500 uM, read-out: KB02_500 uM_percent_inhibition) it was 44%. On Q9H0C5 (100 uM, read-out: KB02_100 uM_percent_inhibition), the inhibition at 100 µM is 9%.
As to `C=CC(=O)N(c1ccccc1)c1ccc(Br)cc1` [KB05], the inhibition at 500 µM at Q8NEG5 (read-out: KB05_500 uM_percent_inhibition) stood at 16%; on Q9BSF8 (setting [2]), 37%; at Q9H0C5 (setting [2]) it was 56%. Moreover, the inhibition at 100 µM on Q7Z569 (setting [1]) worked out at 33%; on Q9BSF8 (100 uM, read-out: KB05_100 uM_percent_inhibition), 27%; at Q9P2G1 (setting [1]), 41%; on Q9Y297 (setting [1]) it was 43%. The “KB05_500 uM_percent_inhibition” value is reported as 53% on Q9BSF8 (500 uM) and 36% at Q9H0C5 (500 uM). Also, the “KB05_100 uM_percent_inhibition” value on Q9P2G1 (100 uM) was 22%.
As for `O=C(CCl)Nc1cc(C(F)(F)F)cc(C(F)(F)F)c1` [KBO3], the “KB03_500 uM_percent_inhibition” value on Q8NEG5 (500 uM) is listed as 8%. For the same compound, the “KB03_100 uM_percent_inhibition” value on Q7Z569 (100 uM) is 10%; at Q8WXK3 (100 uM), 7%; on Q9BSF8 (100 uM) it was 29%; on Q9P2G1 (100 uM) it was 29%; on Q9Y297 (100 uM), 54%.
